Experimental data reported in PMC3479356 (ChemMedChem, 2012).
Like-named read-outs stand apart in the source and are kept apart here. Blank lines part the entries; values can stand above or below the molecule they belong to.

Columns and labels:
[1] = biological target: T1, recombinant human RXR receptor (Homo sapiens, UniProt P19793); test: RXR mammalian two-hybrid assay
T1 sequence (P19793 1-462) 1: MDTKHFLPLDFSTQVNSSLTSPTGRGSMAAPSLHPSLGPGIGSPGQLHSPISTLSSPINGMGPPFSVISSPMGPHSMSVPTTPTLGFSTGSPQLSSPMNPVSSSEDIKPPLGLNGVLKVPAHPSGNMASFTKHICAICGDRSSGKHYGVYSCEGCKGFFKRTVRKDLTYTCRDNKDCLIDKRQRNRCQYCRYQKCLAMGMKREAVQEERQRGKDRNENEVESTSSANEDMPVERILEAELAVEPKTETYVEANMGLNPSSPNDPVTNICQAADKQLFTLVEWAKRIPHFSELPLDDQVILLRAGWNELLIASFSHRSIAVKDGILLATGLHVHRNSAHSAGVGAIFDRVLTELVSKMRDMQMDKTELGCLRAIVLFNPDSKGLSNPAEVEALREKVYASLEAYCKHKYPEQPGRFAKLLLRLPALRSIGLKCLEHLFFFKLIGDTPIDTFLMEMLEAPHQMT
T1 sequence (P19793 1-462) 2: T1 sequence (P19793 1-462) 1

human RXRα = biological target: T2, human RXRα (Homo sapiens, UniProt P19793); test: RXRE-mediated transcription assay; format: cell-based; settings: 10^−7 M, 24 h
T2 sequence (P19793 1-462): T1 sequence (P19793 1-462) 1

RXR = settings: Caco-2 colon cancer cells; cited from earlier work

EC50 [1]: 90 nM
Compound: C=C(c1ccc(C(=O)O)c(Cl)c1)c1cc2c(cc1C)C(C)(C)CCC2(C)C [Analog 12, 2-Chloro-4-(1-(1,2,3,4-tetrahydro-1,1,4,4,6-pentamethylnaphthalen-7-yl)vinyl)benzoic acid]

Compound: C=C(c1cc(F)c(C(=O)O)c(F)c1)c1cc2c(cc1C)C(C)(C)CCC2(C)C [Analog 18, 2,6-difluoro-4-(1-(1,2,3,4-tetrahydro-1,1,4,4,6-pentamethylnaphthalen-7-yl)vinyl)benzoic acid]
RXR homodimer-mediated transcription compared with ethanol vehicle (human RXRα; Caco-2 and HCT-116 cells): significantly better than that of the ethanol vehicle

Compound: Cc1cc2c(cc1C(=O)c1cc(F)c(C(=O)O)c(F)c1)C(C)(C)CCC2(C)C [Analog 19, 2,6-Difluoro-4-(1-(3,5,5,8,8-pentamethyl-5,6,7,8-tetrahydronaphthalen-2-yl)carbonyl)benzoic acid]
EC50 ([1]; read-out: EC50 value, transfected HCT-116 cells, full dose-response curves 10^−10 to 10^−5 M, ± S.D.): 550 nM

Compound: C=C(c1ccc(C(=O)O)c(F)c1)c1cc2c(cc1C)C(C)(C)CCC2(C)C [Compound 11, 2-fluoro-4-(1-(1,2,3,4-tetrahydro-1,1,4,4,6-pentamethylnaphthalen-7-yl)vinyl)benzoic acid]
RXR activation compared with 1 (RXR): slightly higher RXR activation

EC50 [1]: 280 nM
RXR binding and homodimerization, % of the parent compound 1 efficiency ([1]; 10^−7 M, 24 h, independent of the cell line (Caco-2 and HCT-116)): ~20%
Compound: C=C(c1ccc(C(=O)O)c(I)c1)c1cc2c(cc1C)C(C)(C)CCC2(C)C [Analog 16, 2-Iodo-4-(1-(1,2,3,4-tetrahydro-1,1,4,4,6-pentamethylnaphthalen-7-yl)vinyl)benzoic acid]

EC50 [1]: 150 nM
Compound: C=C(c1ccc(C(=O)O)c(Br)c1)c1cc2c(cc1C)C(C)(C)CCC2(C)C [Analog 14, 2-Bromo-4-(1-(1,2,3,4-tetrahydro-1,1,4,4,6-pentamethylnaphthalen-7-yl)vinyl)benzoic acid]

Compound: Cc1cc2c(cc1C(=O)c1ccc(C(=O)O)c(I)c1)C(C)(C)CCC2(C)C [Compound 17, 2-Iodo-4-(1-(3,5,5,8,8-pentamethyl-5,6,7,8-tetrahydronaphthalen-2-yl)carbonyl)benzoic acid]
RXR homodimer-mediated transcription compared with ethanol vehicle (human RXRα; Caco-2 cells): not able to activate transcription
RXR homodimer-mediated transcription compared with ethanol vehicle (human RXRα; HCT-116 cells): significant activity
